From ChEMBL document CHEMBL1125860 (J Med Chem, 1991)
Calls of active or inactive are those of the source. The calls are words filed in the database; no cut-off is given here.

What was measured:
[1] = target: Aldo-keto reductase family 1 member B1 (Bos taurus) (UniProt P16116); test: In vitro % decrease of aldose reductase was measured in isolated partially purified bovine lens preparations at 10e-6 M concentration
[2] = target: Aldo-keto reductase family 1 member B1 (Bos taurus) (UniProt P16116); test: In vitro % decrease of aldose reductase measured in isolated partially purified bovine lens preparations at 10e-7 M concentration
Rattus norvegicus [3] = test: In vivo inhibition of galactitol accumulation in diaphragm of rat at 47 mg/kg/day; Not significant; assay type: functional, organism-based
Rattus norvegicus [4] = test: In vivo inhibition of galactitol accumulation in sciatic nerves of rat at 47 mg/kg/day; Not significant; assay type: functional, organism-based; conditions: Sciatic nerve
Rattus norvegicus [5] = test: In vivo inhibition of galactitol accumulation in sciatic nerves of rat at 2 mg/kg/day; Not significant; assay type: functional, organism-based; conditions: Sciatic nerve
Rattus norvegicus [6] = test: In vivo inhibition of galactitol accumulation in diaphragm of rat at 5 mg/kg/day; assay type: functional
Rattus norvegicus [7] = test: In vivo inhibition of galactitol accumulation in sciatic nerves of rat at 10 mg/kg/day; assay type: functional; conditions: Sciatic nerve
Rattus norvegicus [8] = test: In vivo inhibition of galactitol accumulation in sciatic nerves of rat at 5 mg/kg/day; assay type: functional; conditions: Sciatic nerve
Rattus norvegicus [9] = test: In vivo inhibition of galactitol accumulation in diaphragm of rat at 26 mg/kg/day; assay type: functional
Rattus norvegicus [10] = organism: Rattus norvegicus; test: In vitro inhibition of sorbitol accumulation was measured in rat sciatic nerves incubated in the presence of 50 mM glucose at 10e-5 M concentration; assay type: functional, Sciatic nerve
Rattus norvegicus [11] = organism: Rattus norvegicus; test: In vitro inhibition of sorbitol accumulation was measured in rat sciatic nerves incubated in the presence of 50 mM glucose at 10e-6 M concentration; assay type: functional, Sciatic nerve
Rattus norvegicus [12] = test: In vivo inhibition of galactitol accumulation in sciatic nerves of rat at 25 mg/kg/day; assay type: functional; conditions: Sciatic nerve
Rattus norvegicus [13] = test: In vivo inhibition of galactitol accumulation in diaphragm of rat at 25 mg/kg/day; assay type: functional
[14] = target: Aldo-keto reductase family 1 member B1 (Bos taurus) (UniProt P16116); test: In vitro % decrease of aldose reductase was measured in isolated partially purified bovine lens preparations at 10e-7 M concentration; Not active
Rattus norvegicus [15] = test: In vivo inhibition of galactitol accumulation in diaphragm of rat at 10 mg/kg/day; assay type: functional
Rattus norvegicus [16] = test: In vivo inhibition of galactitol accumulation in sciatic nerves of rat at 26 mg/kg/day; Not significant; assay type: functional, organism-based; conditions: Sciatic nerve
Rattus norvegicus [17] = test: In vivo inhibition of galactitol accumulation in diaphragm of rat at 50 mg/kg/day; Not significant; assay type: functional, organism-based
Rattus norvegicus [18] = test: In vivo inhibition of galactitol accumulation in sciatic nerves of rat at 50 mg/kg/day; Not significant; assay type: functional, organism-based; conditions: Sciatic nerve
Rattus norvegicus [19] = test: In vivo inhibition of galactitol accumulation in diaphragm of rat at 50 mg/kg/day; assay type: functional
Rattus norvegicus [20] = test: In vivo inhibition of galactitol accumulation in sciatic nerves of rat at 50 mg/kg/day; assay type: functional; conditions: Sciatic nerve
Rattus norvegicus [21] = test: In vivo inhibition of galactitol accumulation in diaphragm of rat at 48 mg/kg/day; Not significant; assay type: functional, organism-based
Rattus norvegicus [22] = test: In vivo inhibition of galactitol accumulation in sciatic nerves of rat at 48 mg/kg/day; assay type: functional; conditions: Sciatic nerve
Rattus norvegicus [23] = test: In vivo inhibition of galactitol accumulation in diaphragm of rat at 48 mg/kg/day; assay type: functional
Rattus norvegicus [24] = test: In vivo inhibition of galactitol accumulation in sciatic nerves of rat at 24 mg/kg/day; Not significant; assay type: functional, organism-based; conditions: Sciatic nerve
Rattus norvegicus [25] = test: In vivo inhibition of galactitol accumulation in diaphragm of rat at 24 mg/kg/day; assay type: functional
Rattus norvegicus [26] = test: In vivo inhibition of galactitol accumulation in diaphragm of rat at 49 mg/kg/day; assay type: functional
Rattus norvegicus [27] = test: In vivo inhibition of galactitol accumulation in sciatic nerves of rat at 49 mg/kg/day; assay type: functional; conditions: Sciatic nerve
Rattus norvegicus [28] = test: In vivo inhibition of galactitol accumulation in sciatic nerves of rat at 20 mg/kg/day; Not significant; assay type: functional, organism-based; conditions: Sciatic nerve
Rattus norvegicus [29] = test: In vivo inhibition of galactitol accumulation in sciatic nerves of rat at 24 mg/kg/day; assay type: functional; conditions: Sciatic nerve
Rattus norvegicus [30] = test: In vivo inhibition of galactitol accumulation in diaphragm of rat at 20 mg/kg/day; Not significant; assay type: functional, organism-based
Rattus norvegicus [31] = test: In vivo inhibition of galactitol accumulation in sciatic nerves of rat at 48 mg/kg/day; Not significant; assay type: functional, organism-based; conditions: Sciatic nerve

COc1ccc2c(C(=O)N(C)CC(=O)O)c(C(C)(C)C)ccc2c1C(F)(F)F
inhibition [1]: 23%
inhibition [2]: 6%
inhibition (Rattus norvegicus [3]): inactive
inhibition (Rattus norvegicus [4]): inactive

COc1ccc2c(C(=S)N(C)CC(N)=O)c(F)ccc2c1C(F)(F)F
inhibition (Rattus norvegicus [5]): inactive
inhibition in vivo at 5 mg/kg/day (Rattus norvegicus [6]): 80%
inhibition in vivo at 10 mg/kg/day (Rattus norvegicus [7]): 54%
inhibition in vivo at 5 mg/kg/day (Rattus norvegicus [8]): 33%

COC(=O)N(CC(=O)O)C(=O)c1c(Cl)ccc2c(C(F)(F)F)c(OC)ccc12
inhibition [2]: 85%
inhibition in vivo at 26 mg/kg/day (Rattus norvegicus [9]): 68%
Inhibition (Rattus norvegicus [10]): 75%
Inhibition (Rattus norvegicus [11]): 49%

COc1ccc2c(C(=S)N(C)CC(=O)O)ccc(F)c2c1C(F)(F)F
inhibition [2]: 84%
inhibition in vivo at 25 mg/kg/day (Rattus norvegicus [12]): 94%
inhibition in vivo at 25 mg/kg/day (Rattus norvegicus [13]): 90%

CCOC(=O)NC(=O)CN(C)C(=O)c1c(F)ccc2c(C(F)(F)F)c(OC)ccc12
inhibition [14]: inactive
inhibition in vivo at 5 mg/kg/day (Rattus norvegicus [6]): 22%
inhibition in vivo at 10 mg/kg/day (Rattus norvegicus [7]): 59%
inhibition in vivo at 5 mg/kg/day (Rattus norvegicus [8]): 36%
inhibition in vivo at 10 mg/kg/day (Rattus norvegicus [15]): 41%

COc1ccc2c(C(F)(F)F)c(OC)ccc2c1C(=S)N(C)CC(=O)O
inhibition [2]: 91%
inhibition in vivo at 26 mg/kg/day (Rattus norvegicus [9]): 71%
inhibition (Rattus norvegicus [16]): inactive

COc1ccc2c(C(=O)N(C)CC(=O)O)c(Cc3ccccc3)ccc2c1C(F)(F)F
inhibition [2]: 52%
inhibition (Rattus norvegicus [17]): inactive
inhibition (Rattus norvegicus [18]): inactive

CCCOc1ccc2c(C(F)(F)F)c(OC)ccc2c1C(=O)N(C)CC(=O)O
inhibition [2]: 46%
inhibition in vivo at 50 mg/kg/day (Rattus norvegicus [19]): 57%
inhibition in vivo at 50 mg/kg/day (Rattus norvegicus [20]): 48%

CCOC(=O)N(CC(=O)O)C(=O)c1cc(Br)cc2c(Br)c(OC)ccc12
inhibition [2]: 84%
inhibition (Rattus norvegicus [3]): inactive
inhibition (Rattus norvegicus [4]): inactive

COc1ccc2c(C(=O)N(C)CC(=O)O)c(SC)ccc2c1C(F)(F)F
inhibition [2]: 69%
inhibition (Rattus norvegicus [17]): inactive
inhibition (Rattus norvegicus [18]): inactive
Inhibition (Rattus norvegicus [10]): 60%
Inhibition (Rattus norvegicus [11]): 41%

CCCCc1ccc2c(C(F)(F)F)c(OC)ccc2c1C(=O)N(C)CC(N)=O
inhibition [14]: inactive
inhibition (Rattus norvegicus [21]): inactive
inhibition in vivo at 48 mg/kg/day (Rattus norvegicus [22]): 30%

COc1ccc2c(C(=S)N(C)CC(=O)O)cc(Br)cc2c1Br
inhibition [2]: 94%
inhibition in vivo at 26 mg/kg/day (Rattus norvegicus [9]): 86%
inhibition (Rattus norvegicus [16]): inactive

COc1ccc2c(C(=O)N(C)CC(=O)O)cc(-c3ccccc3)cc2c1C(F)(F)F
inhibition [2]: 63%
inhibition (Rattus norvegicus [17]): inactive
inhibition (Rattus norvegicus [18]): inactive
Inhibition (Rattus norvegicus [10]): 77%
Inhibition (Rattus norvegicus [11]): 32%

COC(=O)N(CC(=O)O)C(=O)c1cccc2c(C(F)(F)F)c(OC)ccc12
inhibition in vivo at 48 mg/kg/day (Rattus norvegicus [23]): 54%
inhibition in vivo at 48 mg/kg/day (Rattus norvegicus [22]): 70%
inhibition in vivo at 10 mg/kg/day (Rattus norvegicus [7]): 86%
inhibition in vivo at 10 mg/kg/day (Rattus norvegicus [15]): 76%
Inhibition (Rattus norvegicus [10]): 58%

COc1ccc2c(C(=S)N(C)CC(=O)O)c(Oc3ccccc3)ccc2c1C(F)(F)F
inhibition [2]: 89%
inhibition (Rattus norvegicus [24]): inactive
inhibition in vivo at 24 mg/kg/day (Rattus norvegicus [25]): 83%

COC(=O)N(CC(=O)O)C(=O)c1c(OC)ccc2c(C(F)(F)F)c(OC)ccc12
inhibition [2]: 83%
inhibition in vivo at 49 mg/kg/day (Rattus norvegicus [26]): 33%
inhibition in vivo at 49 mg/kg/day (Rattus norvegicus [27]): 36%

COc1ccc2c(C(=S)N(C)CC(N)=O)cc(C)cc2c1Br
inhibition [14]: inactive
inhibition (Rattus norvegicus [28]): inactive
inhibition in vivo at 24 mg/kg/day (Rattus norvegicus [29]): 68%
inhibition (Rattus norvegicus [30]): inactive
inhibition in vivo at 24 mg/kg/day (Rattus norvegicus [25]): 70%

COc1ccc2c(C(=O)N(C)CC(N)=O)c(C(C)(C)C)ccc2c1C(F)(F)F
inhibition [14]: inactive
inhibition (Rattus norvegicus [21]): inactive
inhibition (Rattus norvegicus [31]): inactive
